Where “and” joins values, the source holds several entries; their conditions need not be identical. Equal entries are not always repeated.
Assay: LHGFR expressed in E. coli BL21(DE3), response to exogenous L-2-HG (time course and dose-response)
Type: cell-based
Details: Fig. 5a
Protocol: To characterize the sensitivity and specificity of LHGFR expressed in E. coli BL21(DE3), 90 μL cell suspensions following 8 h carbon starvation were mixed with 10 μL increasing concentrations of L-2-HG or other compounds, and then added into a black 96-well plate (total 100 μL/per well), the fluorescence intensities were determined using an EnSight microplate reader (PerkinElmer, USA) and the following instrument settings: excitation at 430 nm, emission at 485 nm (mTFP) and 528 nm (Venus), time intervals of 5 min, the temperature at 37 °C, and shake at 180 rpm.

For `O=C(O)CC[C@H](O)C(=O)O` [L-2-HG, L-2-Hydroxyglutarate], the Emission ratio (100 μM L-2-HG, 45 min) was 1.032 and 1.026 and 1.029, the Emission ratio (100 μM L-2-HG, 50 min) was 1.0383 and 1.034 and 1.036 and the Emission ratio (100 μM L-2-HG, 55 min) was 1.032 and 1.026 and 1.035. For the same compound, the Emission ratio (100 μM L-2-HG, 60 min) was 1.021 and 1.025 and 1.037, the Emission ratio (100 μM L-2-HG, 65 min) was 1.0313 and 1.027 and 1.042 and the Emission ratio (100 μM L-2-HG, 70 min) was 1.0328 and 1.039 and 1.045. The Emission ratio (100 μM L-2-HG, 75 min) was 1.033 and 1.036 and 1.056, the Emission ratio (100 μM L-2-HG, 80 min) was 1.038 and 1.023 and 1.047 and the Emission ratio (100 μM L-2-HG, 85 min) was 1.027 and 1.0315 and 1.0551. The Emission ratio (100 μM L-2-HG, 90 min) was 1.039 and 1.022 and 1.053, the Emission ratio (200 μM L-2-HG, 0 min) was 0.9917 and 0.9725 and 0.9805 and the Emission ratio (200 μM L-2-HG, 5 min) was 1.014 and 1.003 and 1.0079. For the same compound, the Emission ratio (200 μM L-2-HG, 10 min) was 1.023 and 1.0171 and 1.02, the Emission ratio (200 μM L-2-HG, 15 min) was 1.025 and 1.029 and 1.038 and the Emission ratio (200 μM L-2-HG, 20 min) was 1.048 and 1.05 and 1.039. For the same compound, the Emission ratio (200 μM L-2-HG, 25 min) was 1.049 and 1.058 and 1.042, the Emission ratio (200 μM L-2-HG, 30 min) was 1.046 and 1.049 and 1.051 and the Emission ratio (200 μM L-2-HG, 35 min) was 1.046 (2×) and 1.055. The Emission ratio (200 μM L-2-HG, 40 min) was 1.05 and 1.054 and 1.06, the Emission ratio (200 μM L-2-HG, 45 min) was 1.052 and 1.0481 and 1.064 and the Emission ratio (200 μM L-2-HG, 50 min) was 1.061 and 1.056 and 1.069. For the same compound, the Emission ratio (200 μM L-2-HG, 55 min) was 1.06 and 1.0497 and 1.072, the Emission ratio (200 μM L-2-HG, 60 min) was 1.062 and 1.046 and 1.073 and the Emission ratio (200 μM L-2-HG, 65 min) was 1.05 and 1.055 and 1.074. The Emission ratio (200 μM L-2-HG, 70 min) was 1.061 and 1.042 and 1.07, the Emission ratio (200 μM L-2-HG, 75 min) was 1.068 and 1.046 and 1.072 and the Emission ratio (200 μM L-2-HG, 80 min) was 1.063 and 1.037 and 1.071. The Emission ratio (200 μM L-2-HG, 85 min) was 1.058 and 1.051 and 1.076, the Emission ratio (200 μM L-2-HG, 90 min) was 1.065 and 1.04 and 1.07 and the Emission ratio (1 mM L-2-HG, 0 min) was 1.009 and 0.986 and 0.9798. For the same compound, the Emission ratio (1 mM L-2-HG, 5 min) was 1.043 and 1.0226 and 1.019, the Emission ratio (1 mM L-2-HG, 10 min) was 1.061 and 1.055 and 1.04 and the Emission ratio (1 mM L-2-HG, 15 min) was 1.087 and 1.082 and 1.067. For the same compound, the Emission ratio (1 mM L-2-HG, 20 min) was 1.121 and 1.102 and 1.088, the Emission ratio (1 mM L-2-HG, 25 min) was 1.134 and 1.124 and 1.105 and the Emission ratio (1 mM L-2-HG, 30 min) was 1.1596 and 1.147 and 1.142. The Emission ratio (1 mM L-2-HG, 35 min) was 1.168 and 1.165 and 1.162, the Emission ratio (1 mM L-2-HG, 40 min) was 1.202 and 1.191 and 1.172 and the Emission ratio (1 mM L-2-HG, 45 min) was 1.22 and 1.2003 and 1.196. For the same compound, the Emission ratio (1 mM L-2-HG, 50 min) was 1.242 and 1.221 and 1.214, the Emission ratio (1 mM L-2-HG, 55 min) was 1.254 and 1.245 and 1.226 and the Emission ratio (1 mM L-2-HG, 60 min) was 1.262 and 1.251 and 1.2291. The Emission ratio (1 mM L-2-HG, 65 min) was 1.264 and 1.242 and 1.229, the Emission ratio (1 mM L-2-HG, 70 min) was 1.261 and 1.241 and 1.2295 and the Emission ratio (1 mM L-2-HG, 75 min) was 1.265 and 1.246 and 1.229. For the same compound, the Emission ratio (1 mM L-2-HG, 80 min) was 1.265 and 1.238 and 1.24, the Emission ratio (1 mM L-2-HG, 85 min) was 1.257 and 1.244 and 1.238 and the Emission ratio (1 mM L-2-HG, 90 min) was 1.253 and 1.243 (2×). For the same compound, the Emission ratio (2 mM L-2-HG, 0 min) was 1.001 and 0.9869 and 0.9858, the Emission ratio (2 mM L-2-HG, 5 min) was 1.042 and 1.028 and 1.0185 and the Emission ratio (2 mM L-2-HG, 10 min) was 1.085 and 1.067 and 1.059. The Emission ratio (2 mM L-2-HG, 15 min) was 1.125 and 1.11 and 1.101, the Emission ratio (2 mM L-2-HG, 20 min) was 1.179 and 1.162 and 1.146 and the Emission ratio (2 mM L-2-HG, 25 min) was 1.241 and 1.208 and 1.197. The Emission ratio (2 mM L-2-HG, 30 min) was 1.288 and 1.254 and 1.257, the Emission ratio (2 mM L-2-HG, 35 min) was 1.301 and 1.278 and 1.2733 and the Emission ratio (2 mM L-2-HG, 40 min) was 1.333 and 1.31 and 1.292. The Emission ratio (2 mM L-2-HG, 45 min) was 1.337 and 1.329 and 1.307, the Emission ratio (2 mM L-2-HG, 50 min) was 1.347 and 1.335 and 1.324 and the Emission ratio (2 mM L-2-HG, 55 min) was 1.344 and 1.327 and 1.336. The Emission ratio (2 mM L-2-HG, 60 min) was 1.352 and 1.339 and 1.329, the Emission ratio (2 mM L-2-HG, 65 min) was 1.34 and 1.338 and 1.3346 and the Emission ratio (2 mM L-2-HG, 70 min) was 1.362 and 1.355 and 1.346. For the same compound, the Emission ratio (2 mM L-2-HG, 75 min) was 1.365 and 1.3372 and 1.347, the Emission ratio (2 mM L-2-HG, 80 min) was 1.351 and 1.344 (2×) and the Emission ratio (2 mM L-2-HG, 85 min) was 1.353 and 1.367 and 1.357. For the same compound, the Emission ratio (2 mM L-2-HG, 90 min) was 1.364 and 1.351 and 1.361, the Emission ratio (10 mM L-2-HG, 0 min) was 0.9626 and 0.9634 and 0.9687 and the Emission ratio (10 mM L-2-HG, 5 min) was 1.087 and 1.079 and 1.06. For the same compound, the Emission ratio (10 mM L-2-HG, 10 min) was 1.2277 and 1.2165 and 1.18, the Emission ratio (10 mM L-2-HG, 15 min) was 1.322 and 1.305 and 1.285 and the Emission ratio (10 mM L-2-HG, 20 min) was 1.375 and 1.367 and 1.334. The Emission ratio (10 mM L-2-HG, 25 min) was 1.391 and 1.39 and 1.353, the Emission ratio (10 mM L-2-HG, 30 min) was 1.418 and 1.395 and 1.38 and the Emission ratio (10 mM L-2-HG, 35 min) was 1.427 and 1.411 and 1.3928. For the same compound, the Emission ratio (10 mM L-2-HG, 40 min) was 1.439 and 1.431 and 1.3904, the Emission ratio (10 mM L-2-HG, 45 min) was 1.426 and 1.425 and 1.4013 and the Emission ratio (10 mM L-2-HG, 50 min) was 1.427 and 1.438 and 1.392. For the same compound, the Emission ratio (10 mM L-2-HG, 55 min) was 1.431 (2×) and 1.402, the Emission ratio (10 mM L-2-HG, 60 min) was 1.432 and 1.435 and 1.413 and the Emission ratio (10 mM L-2-HG, 65 min) was 1.425 and 1.426 and 1.404. For the same compound, the Emission ratio (10 mM L-2-HG, 70 min) was 1.4381 and 1.438 and 1.417, the Emission ratio (10 mM L-2-HG, 75 min) was 1.426 and 1.4264 and 1.415 and the Emission ratio (10 mM L-2-HG, 80 min) was 1.4478 and 1.43 and 1.416. The Emission ratio (10 mM L-2-HG, 85 min) was 1.446 and 1.432 and 1.415 and the Emission ratio (10 mM L-2-HG, 90 min) was 1.432 and 1.427 and 1.418.
